The target of series [1] is T1, 6-phosphogluconate dehydrogenase, decarboxylating (Homo sapiens) (UniProt P52209).
T1 sequence (whole entry): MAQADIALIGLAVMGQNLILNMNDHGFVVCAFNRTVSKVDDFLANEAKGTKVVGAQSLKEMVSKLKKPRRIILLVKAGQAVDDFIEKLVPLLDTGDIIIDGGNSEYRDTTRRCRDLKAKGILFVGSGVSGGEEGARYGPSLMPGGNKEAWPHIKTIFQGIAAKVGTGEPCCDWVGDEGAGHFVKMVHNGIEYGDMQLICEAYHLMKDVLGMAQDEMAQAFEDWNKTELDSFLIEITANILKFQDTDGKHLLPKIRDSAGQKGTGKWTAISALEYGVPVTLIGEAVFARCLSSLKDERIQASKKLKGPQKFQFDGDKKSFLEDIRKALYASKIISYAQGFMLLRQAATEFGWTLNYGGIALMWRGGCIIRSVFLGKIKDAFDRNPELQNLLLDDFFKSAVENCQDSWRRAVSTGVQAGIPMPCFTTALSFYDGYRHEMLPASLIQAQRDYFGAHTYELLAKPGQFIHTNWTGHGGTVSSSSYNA
Briefly: Inhibition of 6PGD in human A38-5 cells assessed as increase in intracellular H3K9me3 level at 0.1 to 1000 uM incubated for 45 mins by HTRF assay. Format: cell-based. Particulars: dose 0.1-1000 µM. A general note: TR-FRET usually uses a lanthanide donor and a delayed reading to cut background.

For series [2], the target named is T1, 6-phosphogluconate dehydrogenase, decarboxylating (Homo sapiens). Briefly: Inhibition of 6PGD in human A38-5 cells assessed as fold increase in intracellular H3K9me3 level at 250 uM incubated for 45 mins by HTRF assay. Format: cell-based.
For series [3], the target named is Glucose-6-phosphate 1-dehydrogenase (Homo sapiens) (UniProt P11413). The series can be described thus: Inhibition of G6PD in human A38-5 cells assessed as fold increase in G6P level at 250 uM incubated for 72 hrs by mass spectrometry. Format: cell-based.
Sequence of Glucose-6-phosphate 1-dehydrogenase (Homo sapiens) (P11413 whole entry): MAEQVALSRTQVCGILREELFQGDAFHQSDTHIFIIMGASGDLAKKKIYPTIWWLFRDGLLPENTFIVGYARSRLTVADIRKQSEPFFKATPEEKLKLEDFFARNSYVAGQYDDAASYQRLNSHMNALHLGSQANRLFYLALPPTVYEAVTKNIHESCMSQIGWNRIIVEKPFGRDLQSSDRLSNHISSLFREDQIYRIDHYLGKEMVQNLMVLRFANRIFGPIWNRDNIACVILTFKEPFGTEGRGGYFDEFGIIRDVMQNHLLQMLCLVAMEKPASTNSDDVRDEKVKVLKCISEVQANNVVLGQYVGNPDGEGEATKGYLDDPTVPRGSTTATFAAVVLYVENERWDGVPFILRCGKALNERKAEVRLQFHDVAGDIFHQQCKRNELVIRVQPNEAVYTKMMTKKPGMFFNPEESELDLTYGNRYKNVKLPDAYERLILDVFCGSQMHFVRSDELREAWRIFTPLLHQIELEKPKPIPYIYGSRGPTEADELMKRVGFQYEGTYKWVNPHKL
Series [4] has as its target T1, 6-phosphogluconate dehydrogenase, decarboxylating (Homo sapiens). Briefly: Inhibition of 6PGD in human A38-5 cells assessed as fold increase in 6PG level at 250 uM incubated for 72 hrs by mass spectrometry. Format: cell-based.
The nature of series [5]: Neurotoxicity against Sprague-Dawley rat Primary hippocampal neuron assessed as increase in TUNEL positive cells at 50 uM incubated for 24 hrs by TUNEL staining based microscopy. Format: toxicity, cell-based. Particulars: hippocampal neurone.
Series [6] addresses T1, 6-phosphogluconate dehydrogenase, decarboxylating (Homo sapiens). The series can be described thus: Inhibition of 6PGD in human A38-5 cells assessed as increase in Ru-5-P level at 250 uM incubated for 72 hrs by mass spectrometry. Format: cell-based.
Series [7] in a line: Neurotoxicity against Sprague-Dawley rat Primary hippocampal neuron assessed as increase in TUNEL positive cells at 5 uM incubated for 24 hrs by TUNEL staining based microscopy. Particulars: hippocampal neurone. Format: toxicity, cell-based.
Series [8] addresses T2, 6-phosphogluconate dehydrogenase, decarboxylating (Rattus norvegicus, UniProt P85968).
T2 sequence (P85968 whole entry): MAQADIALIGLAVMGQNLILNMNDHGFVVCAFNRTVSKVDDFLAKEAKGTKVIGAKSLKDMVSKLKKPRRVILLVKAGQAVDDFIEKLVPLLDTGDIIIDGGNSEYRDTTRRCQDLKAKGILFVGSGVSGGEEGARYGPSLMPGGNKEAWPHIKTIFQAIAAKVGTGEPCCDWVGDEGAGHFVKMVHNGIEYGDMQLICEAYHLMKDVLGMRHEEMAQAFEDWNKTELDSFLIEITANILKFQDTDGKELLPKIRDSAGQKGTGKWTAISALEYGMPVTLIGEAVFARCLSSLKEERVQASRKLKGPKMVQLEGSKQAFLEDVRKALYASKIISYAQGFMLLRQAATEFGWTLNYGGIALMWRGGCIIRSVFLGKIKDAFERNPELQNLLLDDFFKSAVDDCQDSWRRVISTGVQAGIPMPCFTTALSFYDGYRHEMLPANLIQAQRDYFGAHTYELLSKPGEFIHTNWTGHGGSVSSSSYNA
Briefly: Inhibition of rat 6PGD assessed as inhibition constant by spectrophotometric method.

In series [9] the target is Glucose-6-phosphate 1-dehydrogenase (Rattus norvegicus, UniProt P05370). The series can be described thus: Inhibition of rat G6PD by spectrophotometric method.
Sequence of Glucose-6-phosphate 1-dehydrogenase (P05370 whole entry): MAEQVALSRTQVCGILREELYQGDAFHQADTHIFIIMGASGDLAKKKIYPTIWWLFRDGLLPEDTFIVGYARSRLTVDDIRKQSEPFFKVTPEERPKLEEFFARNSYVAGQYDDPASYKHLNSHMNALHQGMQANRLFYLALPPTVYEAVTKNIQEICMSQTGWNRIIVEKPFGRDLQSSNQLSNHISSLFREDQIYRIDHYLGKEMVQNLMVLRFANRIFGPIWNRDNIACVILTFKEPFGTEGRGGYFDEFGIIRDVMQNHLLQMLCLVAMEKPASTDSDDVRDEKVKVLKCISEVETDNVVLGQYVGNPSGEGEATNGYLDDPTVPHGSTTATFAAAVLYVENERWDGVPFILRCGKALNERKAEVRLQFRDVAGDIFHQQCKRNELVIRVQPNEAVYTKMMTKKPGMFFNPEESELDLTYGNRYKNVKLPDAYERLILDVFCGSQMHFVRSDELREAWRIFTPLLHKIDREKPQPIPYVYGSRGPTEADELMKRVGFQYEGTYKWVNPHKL
In series [10] the target is T2, 6-phosphogluconate dehydrogenase, decarboxylating. Briefly: Inhibition of rat 6PGD by spectrophotometric method.
In another series the target is T3, Glutathione reductase (Rattus norvegicus, UniProt P70619).
T3 sequence (P70619 whole entry): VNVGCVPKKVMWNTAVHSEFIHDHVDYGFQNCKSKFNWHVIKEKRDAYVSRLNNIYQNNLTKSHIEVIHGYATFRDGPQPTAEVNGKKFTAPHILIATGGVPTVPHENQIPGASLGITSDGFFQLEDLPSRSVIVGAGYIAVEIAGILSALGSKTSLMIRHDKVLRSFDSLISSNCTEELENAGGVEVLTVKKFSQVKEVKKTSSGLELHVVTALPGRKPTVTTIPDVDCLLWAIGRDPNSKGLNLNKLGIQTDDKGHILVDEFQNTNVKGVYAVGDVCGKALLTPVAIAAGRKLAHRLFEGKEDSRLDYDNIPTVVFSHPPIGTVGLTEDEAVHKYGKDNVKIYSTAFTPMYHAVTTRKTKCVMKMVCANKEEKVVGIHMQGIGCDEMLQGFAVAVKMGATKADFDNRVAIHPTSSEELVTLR
The series can be described thus: Inhibition of rat glutathione reductase by spectrophotometric method.

In another series the test system is A38-5. Briefly: Cytotoxicity against human A38-5 cells assessed as reduction in cell viability at 0.06 to 250 uM incubated for 72 hrs by CellTiter-Glo assay relative to 6AN. Format: functional, cell-based. Conditions: dose 0.06-250 µM. A general note: In ATP-based viability assays light output follows the ATP content of the culture.
For series [11], the target named is T1, 6-phosphogluconate dehydrogenase, decarboxylating (Homo sapiens). The series can be described thus: Inhibition of 6PGD in human A38-5 cells assessed as increase in intracellular H3K9me3 expression level at 1 to 250 uM incubated for 72 hrs by western blot analysis. Format: cell-based. Conditions: dose 1-250 µM. Background: In western blotting, separated proteins are transferred to a membrane and probed.

For series [12], the target named is Glucose-6-phosphate 1-dehydrogenase (Homo sapiens) (UniProt P11413). Briefly: Inhibition of G6PD in human A38-5 cells assessed as fold increase in G6P level at 15.6 uM incubated for 72 hrs by mass spectrometry. Format: cell-based.
Series [13] deals with T1, 6-phosphogluconate dehydrogenase, decarboxylating (Homo sapiens). The series can be described thus: Inhibition of 6PGD in human A38-5 cells assessed as increase in Ru-5-P level at 15.6 uM incubated for 72 hrs by mass spectrometry. Format: cell-based.
The target is the same in series [14]. Briefly: Inhibition of 6PGD in human A38-5 cells assessed as fold increase in 6PG level at 15.6 uM incubated for 72 hrs by mass spectrometry. Format: cell-based.
Series [15] has the same target. Briefly: Inhibition of 6PGD in human A38-5 cells assessed as increase in intracellular H3K9me3 level at 1 uM incubated for 45 mins by HTRF assay. Format: cell-based.

SMILES strings stand for the structures. Active and inactive are the calls of the source. No cut-off for these calls is given here.

Regarding `CCOC(=O)OC(C)OC(=O)c1ccc(N)nc1` (stereo not given), the “activity outcome (qualitative)” value in series [1] (DDE = dose-dependent effect) was “Dde”.
As for `CC(C)C(=O)OCOC(=O)c1ccc(N)nc1`, the “activity outcome (qualitative)” value in [1] is “Active”.
Still for that read-out and setting: the value for `CCCC(=O)OCOC(=O)c1ccc(N)nc1` was “Active”.
Turning to `NC(=O)c1ccc(N)nc1` [6-AMINONICOTINAMIDE], the results for the fold change (FC) in [2], in [3] and in series [4] were 2.5, 2 and 150, respectively. The “activity outcome (qualitative)” value in series [1] (DDE = dose-dependent effect) is “Dde”. The Activity entry in [5] and in [7] was “Toxic” each time. Further, the inhibition entry in series [6] was “Active”.
As a reminder, the Ki is the equilibrium dissociation constant of an inhibitor or competing ligand from its target. For orientation: IC50 means the concentration at which inhibition is half-maximal. Read a high IC50 as a need for much substance. For `NC(=O)c1ccc(N)[n+]([C@@H]2O[C@H](COP(=O)(O)OP(=O)(O)OC[C@H]3O[C@@H](n4cnc5c(N)ncnc54)[C@H](OP(=O)(O)O)[C@@H]3O)[C@@H](O)[C@H]2O)c1`, in series [8], the Ki came out at 0.1 µM. Also, the IC50 in series [9] came out at 70 µM; in [10], 0.2 µM; on Glutathione reductase, 46 µM.
Consider `CCOC(=O)OCOC(=O)c1ccc(N)nc1`, for which the “activity outcome (qualitative)” value in series [1] (DDE = dose-dependent effect) was “Dde”.
Regarding `CC(=O)OCOC(=O)c1ccc(N)nc1`, the “activity outcome (qualitative)” value in [1] is “Active”.
On to `CC(OC(=O)OC1CCCCC1)OC(=O)c1ccc(N)nc1` (stereo not given), for which the “activity outcome (qualitative)” value in series [1] (DDE = dose-dependent effect) was “Dde”. In addition, the Activity result in [5] and in [7] was “Non-Toxic” throughout. In the series with A38-5, the outcome was Active. The inhibition result in series [11], in series [13] and in [15] was “Active” throughout. Moreover, the fold change (FC) in series [12] is 2; in series [14] it was 150.

Values taken from ChEMBL document CHEMBL5104218, “Effects of 6-Aminonicotinic Acid Esters on the Reprogrammed Epigenetic State of Distant Metastatic Pancreatic Carcinoma” (ACS Med Chem Lett, 2022).
